Assay results as given in US20240158446A1, “CYCLIC COMPOUND HAVING SELECTIVE INHIBITORY ACTION ON KRAS OVER HRAS AND NRAS” (CHUGAI SEIYAKU KABUSHIKI KAISHA, priority 2021, published 2024).

Columns and labels:
[1] = target: GDP-bound HRAS wild-type protein (Homo sapiens, UniProt P01112); experiment: Binding to HRAS by surface plasmon resonance (SPR), Single Cycle Kinetics; conditions: SPR, GDP-bound HRAS wild-type protein vs GDP-bound KRAS wild-type protein
[2] = target: GDP-bound KRAS wild-type protein (Homo sapiens, UniProt P01116); experiment: Binding to KRAS by surface plasmon resonance (SPR), Single Cycle Kinetics; conditions: SPR, Single Cycle Kinetics, GDP-bound KRAS wild-type protein; read-out: KRAS KD
Sequence of GDP-bound KRAS wild-type protein (P01116 whole entry): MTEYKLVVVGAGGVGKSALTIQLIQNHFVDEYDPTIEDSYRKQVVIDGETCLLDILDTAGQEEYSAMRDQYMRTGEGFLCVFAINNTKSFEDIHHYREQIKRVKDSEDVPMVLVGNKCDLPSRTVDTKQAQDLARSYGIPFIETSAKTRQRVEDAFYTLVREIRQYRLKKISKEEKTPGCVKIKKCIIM

[3] = target: GDP-bound NRAS wild-type protein (Homo sapiens, UniProt P01111); experiment: Binding to NRAS by surface plasmon resonance (SPR), Single Cycle Kinetics; conditions: SPR, GDP-bound NRAS wild-type protein vs GDP-bound KRAS wild-type protein
Sequence of GDP-bound NRAS wild-type protein (P01111 whole entry): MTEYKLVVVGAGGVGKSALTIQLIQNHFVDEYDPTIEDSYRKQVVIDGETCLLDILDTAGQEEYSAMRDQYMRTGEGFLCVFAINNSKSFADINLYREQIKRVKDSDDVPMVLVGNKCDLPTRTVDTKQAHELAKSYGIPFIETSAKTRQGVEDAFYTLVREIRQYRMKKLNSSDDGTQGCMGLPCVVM

Sequence of GDP-bound HRAS wild-type protein (P01112 whole entry): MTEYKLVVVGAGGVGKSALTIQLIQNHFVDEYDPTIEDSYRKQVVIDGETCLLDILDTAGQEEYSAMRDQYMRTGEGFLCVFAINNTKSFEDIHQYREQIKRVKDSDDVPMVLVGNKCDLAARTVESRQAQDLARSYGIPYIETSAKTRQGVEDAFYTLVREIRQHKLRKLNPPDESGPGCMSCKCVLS

Kd [2] [nM]	SMILES	HRAS/KRAS (ratio of KD value for HRAS to KD value for KRAS) [1]	NRAS/KRAS (ratio of KD value for NRAS to KD value for KRAS) [3]
0.13	CCO[C@@H]1C[C@H]2C(=O)NC3(CCC3)C(=O)N(C)[C@@H](C3CCCCC3)C(=O)N(C)[C@H](C(=O)N(C)C)CC(=O)N(C)[C@@H](CC)C(=O)N[C@@H]([C@@H](C)CC)C(=O)N(C)CC(=O)N(C)[C@H]3C/C=C\CCN(C3=O)[C@@H](Cc3ccc(C(F)(F)F)cc3)C(=O)N(C)CC(=O)N[C@@H](CCc3cc(F)c(C(F)(F)F)c(F)c3)C(=O)N2C1 [PP1086, (2S,8S,12R,14S,20S,23S,27S,30S,36S,38Z)-20-cyclohexyl-8-[2-[3,5-difluoro-4-(trifluoromethyl)phenyl]ethyl]-12-ethoxy-27-ethyl-N,N,4,19,22,26,32,35-octamethyl-30-[(1S)-1-methylpropyl]-3,6,9,15,18,21,25,28,31,34,42-undecaoxo-2-[[4-(trifluoromethyl)phenyl]methyl]spiro[1,4,7,10,16,19,22,26,29,32,35-undecazatricyclo[34.5.1.0^10,14]dotetracont-38-ene-17,1′-cyclobutane]-23-carboxamide]	A (a compound having 10 or more and less than 20 is denoted as A)	AA (a compound having 20 or more is denoted as AA)
0.095	CCO[C@@H]1C[C@H]2C(=O)NC3(CCC3)C(=O)N(C)[C@@H]([C@@H](C)CC)C(=O)N(C)[C@H](C(=O)N(C)C)CC(=O)N(C)[C@@H](CC)C(=O)N[C@@H]([C@@H](C)CC)C(=O)N(C)CC(=O)N(C)[C@H]3C/C=C\CCN(C3=O)[C@@H](Cc3ccc(C(F)(F)F)cc3)C(=O)N(C)CC(=O)N[C@@H](CCc3cc(F)c(C(F)(F)F)c(F)c3)C(=O)N2C1 [PP1087, (2S,8S,12R,14S,20S,23S,27S,30S,36S,38Z)-8-[2-[3,5-difluoro-4-(trifluoromethyl)phenyl]ethyl]-12-ethoxy-27-ethyl-N,N,4,19,22,26,32,35-octamethyl-20,30-bis[(1S)-1-methylpropyl]-3,6,9,15,18,21,25,28,31,34,42-undecaoxo-2-[[4-(trifluoromethyl)phenyl]methyl]spiro[1,4,7,10,16,19,22,26,29,32,35-undecazatricyclo[34.5.1.0^10,14]dotetracont-38-ene-17,1′-cyclobutane]-23-carboxamide]	A (a compound having 10 or more and less than 20 is denoted as A)	A (a compound having 10 or more and less than 20 is denoted as A)
0.55	CCO[C@@H]1C[C@H]2C(=O)NC3(CCC3)C(=O)N(C)[C@@H](C(C)C)C(=O)N(C)[C@H](C(=O)N(C)C)CC(=O)N(C)[C@@H](CC)C(=O)N[C@@H]([C@@H](C)CC)C(=O)N(C)CC(=O)N(C)[C@H]3C/C=C\CCN(C3=O)[C@@H](Cc3ccc(C(F)(F)F)cc3)C(=O)N(C)CC(=O)N[C@@H](CCc3cc(F)c(C(F)(F)F)c(F)c3)C(=O)N2C1 [PP1088]	A (a compound having 10 or more and less than 20 is denoted as A)	A (a compound having 10 or more and less than 20 is denoted as A)
0.12	CCO[C@@H]1C[C@H]2C(=O)NC3(CCC3)C(=O)N(C)[C@@H](CC(C)C)C(=O)N(C)[C@H](C(=O)N(C)C)CC(=O)N(C)[C@@H](CC)C(=O)N[C@@H]([C@@H](C)CC)C(=O)N(C)CC(=O)N(C)[C@H]3C/C=C\CCN(C3=O)[C@@H](Cc3ccc(C(F)(F)F)cc3)C(=O)N(C)CC(=O)N[C@@H](CCc3cc(F)c(C(F)(F)F)c(F)c3)C(=O)N2C1 [PP1089, (2S,8S,12R,14S,20S,23S,27S,30S,36S,38Z)-8-[2-[3,5-difluoro-4-(trifluoromethyl)phenyl]ethyl]-12-ethoxy-27-ethyl-20-isobutyl-N,N,4,19,22,26,32,35-octamethyl-30-[(1S)-1-methylpropyl]-3,6,9,15,18,21,25,28,31,34,42-undecaoxo-2-[[4-(trifluoromethyl)phenyl]methyl]spiro[1,4,7,10,16,19,22,26,29,32,35-undecazatricyclo[34.5.1.0^10,14]dotetracont-38-ene-17,1′-cyclobutane]-23-carboxamide]	A (a compound having 10 or more and less than 20 is denoted as A)	AA (a compound having 20 or more is denoted as AA)
0.086	CCO[C@@H]1C[C@H]2C(=O)NC3(CCC3)C(=O)N(C)[C@@H](C3CCCC3)C(=O)N(C)[C@H](C(=O)N3CCCC3)CC(=O)N(C)[C@@H](CC)C(=O)N[C@@H]([C@@H](C)CC)C(=O)N(C)CC(=O)N(C)[C@H]3C/C=C\CCN(C3=O)[C@@H](Cc3ccc(C(F)(F)F)cc3)C(=O)N(C)CC(=O)N[C@@H](CCc3cc(F)c(C(F)(F)F)c(F)c3)C(=O)N2C1 [PP1090, (2S,8S,12R,14S,20S,23S,27S,30S,36S,38Z)-20-cyclopentyl-8-[2-[3,5-difluoro-4-(trifluoromethyl)phenyl]ethyl]-12-ethoxy-27-ethyl-4,19,22,26,32,35-hexamethyl-30-[(1S)-1-methylpropyl]-23-(pyrrolidine-1-carbonyl)-2-[[4-(trifluoromethyl)phenyl]methyl]spiro[1,4,7,10,16,19,22,26,29,32,35-undecazatricyclo[34.5.1.0^10,14]dotetracont-38-ene-17,1′-cyclobutane]-3,6,9,15,18,21,25,28,31,34,42-undecone]	A (a compound having 10 or more and less than 20 is denoted as A)	AA (a compound having 20 or more is denoted as AA)
0.11	CCO[C@@H]1C[C@H]2C(=O)NC3(CCC3)C(=O)N(C)[C@@H](C3CCCC3)C(=O)N(C)[C@H](C(=O)N3CCC3)CC(=O)N(C)[C@@H](CC)C(=O)N[C@@H]([C@@H](C)CC)C(=O)N(C)CC(=O)N(C)[C@H]3C/C=C\CCN(C3=O)[C@@H](Cc3ccc(C(F)(F)F)cc3)C(=O)N(C)CC(=O)N[C@@H](CCc3cc(F)c(C(F)(F)F)c(F)c3)C(=O)N2C1 [PP1091, (2S,8S,12R,14S,20S,23S,27S,30S,36S,38Z)-23-(azetidine-1-carbonyl)-20-cyclopentyl-8-[2-[3,5-difluoro-4-(trifluoromethyl)phenyl]ethyl]-12-ethoxy-27-ethyl-4,19,22,26,32,35-hexamethyl-30-[(1S)-1-methylpropyl]-2-[[4-(trifluoromethyl)phenyl]methyl]spiro[1,4,7,10,16,19,22,26,29,32,35-undecazatricyclo[34.5.1.0^10,14]dotetracont-38-ene-17,1′-cyclobutane]-3,6,9,15,18,21,25,28,31,34,42-undecone]	B (a compound having 3 or more and less than 10 is denoted as B)	A (a compound having 10 or more and less than 20 is denoted as A)
0.15	CCO[C@@H]1C[C@H]2C(=O)NC3(CCC3)C(=O)N(C)[C@@H](C3CCCC3)C(=O)N(C)[C@H](C(=O)N3CCOCC3)CC(=O)N(C)[C@@H](CC)C(=O)N[C@@H]([C@@H](C)CC)C(=O)N(C)CC(=O)N(C)[C@H]3C/C=C\CCN(C3=O)[C@@H](Cc3ccc(C(F)(F)F)cc3)C(=O)N(C)CC(=O)N[C@@H](CCc3cc(F)c(C(F)(F)F)c(F)c3)C(=O)N2C1 [PP1092]	A (a compound having 10 or more and less than 20 is denoted as A)	A (a compound having 10 or more and less than 20 is denoted as A)
0.84	CCO[C@@H]1C[C@H]2C(=O)NC3(CCC3)C(=O)N(C)[C@@H](C3CCCC3)C(=O)N[C@H](C(=O)N(C)C)CC(=O)N(C)[C@@H](CC)C(=O)N[C@@H]([C@@H](C)CC)C(=O)N(C)CC(=O)N(C)[C@H]3C/C=C\CCN(C3=O)[C@@H](Cc3ccc(C(F)(F)F)cc3)C(=O)N(C)CC(=O)N[C@@H](CCc3cc(F)c(C(F)(F)F)c(F)c3)C(=O)N2C1 [PP1094]	B (a compound having 3 or more and less than 10 is denoted as B)	A (a compound having 10 or more and less than 20 is denoted as A)
0.18	CCO[C@@H]1C[C@H]2C(=O)NC3(CCC3)C(=O)N(C)[C@@H](C3CCCC3)C(=O)N(C)[C@H](C)CC(=O)N(C)[C@@H](CC)C(=O)N[C@@H]([C@@H](C)CC)C(=O)N(C)CC(=O)N(C)[C@H]3C/C=C\CCN(C3=O)[C@@H](Cc3ccc(C(F)(F)F)cc3)C(=O)N(C)CC(=O)N[C@@H](CCc3cc(F)c(C(F)(F)F)c(F)c3)C(=O)N2C1 [PP1095]	B (a compound having 3 or more and less than 10 is denoted as B)	B (a compound having 3 or more and less than 10 is denoted as B)
0.24	CCO[C@@H]1C[C@H]2C(=O)NC3(CCCC3)C(=O)N(C)[C@@H](C3CCCC3)C(=O)N(C)[C@H](C)CC(=O)N(C)[C@@H](CC(C)C)C(=O)N[C@@H]([C@@H](C)CC)C(=O)N(C)CC(=O)N(C)[C@H]3C/C=C\CCN(C3=O)[C@@H](Cc3ccc(C(F)(F)F)cc3)C(=O)N(C)CC(=O)N[C@@H](CCc3cc(F)c(C(F)(F)F)c(F)c3)C(=O)N2C1 [PP1096]	B (a compound having 3 or more and less than 10 is denoted as B)	B (a compound having 3 or more and less than 10 is denoted as B)
